The supplement of paper PMC10307832

Tests used:
Assay in all cases: relative viability (nuclei count vs DMSO), 5 days (fraction); higher = more cells survive
HCC-78 = test system: HCC-78
Summary of the method: (§1)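 Relative viability is defined as nuclei in treated wells over nuclei in vehicle wells. Duplicate plates were run and medians reported. Lung cancer cell lines in 1536-well plates were dosed by pin tool one day after seeding, with one drug or with a fixed anchor-drug dose plus five library-drug doses (not always all listed) in √10 steps, and nuclei were counted after 5 days.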

SK-LU-1 = test system: SK-LU-1
Summary of the method: as §1

NCI-H2085 = test system: NCI-H2085
Summary of the method: as §1

NCI-H358 = test system: NCI-H358
Summary of the method: as §1

NCI-H1666 = test system: NCI-H1666
Summary of the method: as §1

NCI-H1915 = test system: NCI-H1915
Summary of the method: as §1

EPLC-272H = test system: EPLC-272H
Summary of the method: as §1

COR-L 105 = test system: COR-L 105
Summary of the method: as §1

SW 900 = test system: SW 900
Summary of the method: as §1

UMC-11 = test system: UMC-11
Summary of the method: as §1

HOP-62 = test system: HOP-62
Summary of the method: as §1

NCI-H1793 = test system: NCI-H1793
Summary of the method: as §1

NCI-H460 = test system: NCI-H460
Summary of the method: as §1

NCI-H1792 = test system: NCI-H1792
Summary of the method: as §1

LU99A = test system: LU99A
Summary of the method: as §1

NCI-H2170 = test system: NCI-H2170
Summary of the method: as §1

NCI-H1944 = test system: NCI-H1944
Summary of the method: as §1

HCC-366 = test system: HCC-366
Summary of the method: as §1

A-427 = test system: A-427
Summary of the method: as §1

NCI-H2009 = test system: NCI-H2009
Summary of the method: as §1

LXF-289 = test system: LXF-289
Summary of the method: as §1

LC-2-ad = test system: LC-2-ad
Summary of the method: as §1

SMILES: Cc1sc2c(c1C)C(c1ccc(Cl)cc1)=N[C@@H](CC(=O)OC(C)(C)C)c1nnc(C)n1-2 [JQ1] + CC(=O)c1c(C)c2cnc(Nc3ccc(N4CCNCC4)cn3)nc2n(C2CCCC2)c1=O [Palbociclib] (partner 0.5 µM)
- relative viability (HCC-78; first compound 0.04 µM): 0.489
- relative viability (HCC-78; first compound 0.1265 µM): 0.523
- relative viability (HCC-78; first compound 0.4 µM): 0.511
- relative viability (HCC-78; first compound 1.265 µM): 0.469
- relative viability (HCC-78; first compound 4 µM): 0.513
- relative viability (SK-LU-1; first compound 0.04 µM): 0.405
- relative viability (SK-LU-1; first compound 0.1265 µM): 0.359
- relative viability (SK-LU-1; first compound 0.4 µM): 0.35
- relative viability (SK-LU-1; first compound 1.265 µM): 0.282
- relative viability (SK-LU-1; first compound 4 µM): 0.239
- relative viability (NCI-H2085; first compound 0.04 µM): 0.458
- relative viability (NCI-H2085; first compound 0.1265 µM): 0.427
- relative viability (NCI-H2085; first compound 0.4 µM): 0.508
- relative viability (NCI-H2085; first compound 1.265 µM): 0.418
- relative viability (NCI-H2085; first compound 4 µM): 0.462
- relative viability (NCI-H358; first compound 0.04 µM): 0.168
- relative viability (NCI-H358; first compound 0.1265 µM): 0.163
- relative viability (NCI-H358; first compound 0.4 µM): 0.153
- relative viability (NCI-H358; first compound 1.265 µM): 0.145
- relative viability (NCI-H358; first compound 4 µM): 0.155
- relative viability (NCI-H1666; first compound 0.04 µM): 0.646
- relative viability (NCI-H1666; first compound 0.1265 µM): 0.576
- relative viability (NCI-H1666; first compound 0.4 µM): 0.591
- relative viability (NCI-H1666; first compound 1.265 µM): 0.647
- relative viability (NCI-H1666; first compound 4 µM): 0.568
- relative viability (NCI-H1915; first compound 0.04 µM): 0.542
- relative viability (NCI-H1915; first compound 0.4 µM): 0.37
- relative viability (NCI-H1915; first compound 1.265 µM): 0.295
- relative viability (NCI-H1915; first compound 4 µM): 0.179
- relative viability (EPLC-272H; first compound 0.04 µM): 0.315
- relative viability (EPLC-272H; first compound 0.1265 µM): 0.252
- relative viability (EPLC-272H; first compound 0.4 µM): 0.308
- relative viability (EPLC-272H; first compound 1.265 µM): 0.26
- relative viability (EPLC-272H; first compound 4 µM): 0.224
- relative viability (COR-L 105; first compound 0.04 µM): 0.384
- relative viability (COR-L 105; first compound 0.1265 µM): 0.429
- relative viability (COR-L 105; first compound 0.4 µM): 0.358
- relative viability (COR-L 105; first compound 1.265 µM): 0.311
- relative viability (COR-L 105; first compound 4 µM): 0.34
- relative viability (SW 900; first compound 0.04 µM): 0.506
- relative viability (SW 900; first compound 0.1265 µM): 0.465
- relative viability (SW 900; first compound 0.4 µM): 0.318
- relative viability (SW 900; first compound 1.265 µM): 0.289
- relative viability (SW 900; first compound 4 µM): 0.222
- relative viability (UMC-11; first compound 0.04 µM): 0.292
- relative viability (UMC-11; first compound 0.1265 µM): 0.226
- relative viability (UMC-11; first compound 0.4 µM): 0.227
- relative viability (UMC-11; first compound 1.265 µM): 0.257
- relative viability (UMC-11; first compound 4 µM): 0.184
- relative viability (HOP-62; first compound 0.04 µM): 0.424
- relative viability (HOP-62; first compound 0.1265 µM): 0.323
- relative viability (HOP-62; first compound 0.4 µM): 0.152
- relative viability (HOP-62; first compound 1.265 µM): 0.106
- relative viability (HOP-62; first compound 4 µM): 0.0968
- relative viability (NCI-H1793; first compound 0.04 µM): 0.331
- relative viability (NCI-H1793; first compound 0.1265 µM): 0.307
- relative viability (NCI-H1793; first compound 0.4 µM): 0.274
- relative viability (NCI-H1793; first compound 1.265 µM): 0.335
- relative viability (NCI-H1793; first compound 4 µM): 0.334
- relative viability (NCI-H460; first compound 0.04 µM): 0.172
- relative viability (NCI-H460; first compound 0.1265 µM): 0.0585
- relative viability (NCI-H460; first compound 0.4 µM): 0.0456
- relative viability (NCI-H460; first compound 1.265 µM): 0.0198
- relative viability (NCI-H460; first compound 4 µM): 0.0263
- relative viability (NCI-H1792; first compound 0.04 µM): 0.6
- relative viability (NCI-H1792; first compound 0.4 µM): 0.538
- relative viability (NCI-H1792; first compound 1.265 µM): 0.446
- relative viability (NCI-H1792; first compound 4 µM): 0.385
- relative viability (LU99A; first compound 0.04 µM): 0.465
- relative viability (LU99A; first compound 0.4 µM): 0.287
- relative viability (LU99A; first compound 1.265 µM): 0.185
- relative viability (LU99A; first compound 4 µM): 0.176
- relative viability (NCI-H2170; first compound 0.04 µM): 0.342
- relative viability (NCI-H2170; first compound 0.1265 µM): 0.353
- relative viability (NCI-H2170; first compound 0.4 µM): 0.267
- relative viability (NCI-H2170; first compound 1.265 µM): 0.178
- relative viability (NCI-H2170; first compound 4 µM): 0.185
- relative viability (NCI-H1944; first compound 0.04 µM): 0.327
- relative viability (NCI-H1944; first compound 0.1265 µM): 0.308
- relative viability (NCI-H1944; first compound 0.4 µM): 0.232
- relative viability (NCI-H1944; first compound 1.265 µM): 0.217
- relative viability (NCI-H1944; first compound 4 µM): 0.179
- relative viability (HCC-366; first compound 0.04 µM): 0.415
- relative viability (HCC-366; first compound 0.4 µM): 0.202
- relative viability (HCC-366; first compound 1.265 µM): 0.137
- relative viability (HCC-366; first compound 4 µM): 0.0766
- relative viability (A-427; first compound 0.04 µM): 0.524
- relative viability (A-427; first compound 0.1265 µM): 0.493
- relative viability (A-427; first compound 0.4 µM): 0.457
- relative viability (A-427; first compound 1.265 µM): 0.445
- relative viability (A-427; first compound 4 µM): 0.375
- relative viability (NCI-H2009; first compound 0.04 µM): 0.181
- relative viability (NCI-H2009; first compound 0.1265 µM): 0.137
- relative viability (NCI-H2009; first compound 0.4 µM): 0.199
- relative viability (NCI-H2009; first compound 1.265 µM): 0.158
- relative viability (NCI-H2009; first compound 4 µM): 0.156
- relative viability (LXF-289; first compound 0.04 µM): 0.562
- relative viability (LXF-289; first compound 0.1265 µM): 0.591
- relative viability (LXF-289; first compound 0.4 µM): 0.576
- relative viability (LXF-289; first compound 1.265 µM): 0.426
- relative viability (LXF-289; first compound 4 µM): 0.353
- relative viability (LC-2-ad; first compound 0.04 µM): 0.514
- relative viability (LC-2-ad; first compound 0.1265 µM): 0.433
- relative viability (LC-2-ad; first compound 0.4 µM): 0.342
- relative viability (LC-2-ad; first compound 1.265 µM): 0.279
- relative viability (LC-2-ad; first compound 4 µM): 0.281
